One data set addresses T1, Histone deacetylase 8 (Homo sapiens, UniProt Q9BY41).
T1 sequence (Q9BY41 whole entry): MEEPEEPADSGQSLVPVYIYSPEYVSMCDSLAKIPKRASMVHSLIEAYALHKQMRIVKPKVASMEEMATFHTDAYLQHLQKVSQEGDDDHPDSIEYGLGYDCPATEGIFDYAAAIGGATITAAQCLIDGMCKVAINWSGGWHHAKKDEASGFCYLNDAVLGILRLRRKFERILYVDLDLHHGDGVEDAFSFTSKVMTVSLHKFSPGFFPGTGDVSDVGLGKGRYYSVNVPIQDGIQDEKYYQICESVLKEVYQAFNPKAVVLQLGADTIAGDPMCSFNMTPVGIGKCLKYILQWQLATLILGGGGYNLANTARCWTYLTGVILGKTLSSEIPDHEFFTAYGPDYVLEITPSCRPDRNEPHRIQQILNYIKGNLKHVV
Briefly: Inhibition of HDAC8.

For a further data set, the target named is Histone deacetylase 3 (Homo sapiens, UniProt O15379). Briefly: Inhibition of HDAC3.
Chain of Histone deacetylase 3 (O15379 whole entry): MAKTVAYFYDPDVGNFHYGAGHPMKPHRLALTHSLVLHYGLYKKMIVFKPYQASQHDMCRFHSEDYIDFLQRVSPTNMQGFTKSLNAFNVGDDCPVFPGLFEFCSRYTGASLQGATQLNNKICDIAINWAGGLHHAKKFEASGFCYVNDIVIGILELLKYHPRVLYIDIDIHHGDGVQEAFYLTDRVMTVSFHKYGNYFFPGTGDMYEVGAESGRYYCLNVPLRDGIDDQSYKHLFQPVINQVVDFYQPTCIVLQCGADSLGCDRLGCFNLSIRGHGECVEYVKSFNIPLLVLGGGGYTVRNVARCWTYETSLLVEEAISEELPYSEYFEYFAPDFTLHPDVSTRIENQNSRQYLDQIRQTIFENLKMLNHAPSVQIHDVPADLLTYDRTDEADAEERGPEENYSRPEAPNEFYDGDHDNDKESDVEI
Data set [1] has as its target T2, Polyamine deacetylase HDAC10 (Homo sapiens, UniProt Q969S8).
T2 sequence (Q969S8 whole entry): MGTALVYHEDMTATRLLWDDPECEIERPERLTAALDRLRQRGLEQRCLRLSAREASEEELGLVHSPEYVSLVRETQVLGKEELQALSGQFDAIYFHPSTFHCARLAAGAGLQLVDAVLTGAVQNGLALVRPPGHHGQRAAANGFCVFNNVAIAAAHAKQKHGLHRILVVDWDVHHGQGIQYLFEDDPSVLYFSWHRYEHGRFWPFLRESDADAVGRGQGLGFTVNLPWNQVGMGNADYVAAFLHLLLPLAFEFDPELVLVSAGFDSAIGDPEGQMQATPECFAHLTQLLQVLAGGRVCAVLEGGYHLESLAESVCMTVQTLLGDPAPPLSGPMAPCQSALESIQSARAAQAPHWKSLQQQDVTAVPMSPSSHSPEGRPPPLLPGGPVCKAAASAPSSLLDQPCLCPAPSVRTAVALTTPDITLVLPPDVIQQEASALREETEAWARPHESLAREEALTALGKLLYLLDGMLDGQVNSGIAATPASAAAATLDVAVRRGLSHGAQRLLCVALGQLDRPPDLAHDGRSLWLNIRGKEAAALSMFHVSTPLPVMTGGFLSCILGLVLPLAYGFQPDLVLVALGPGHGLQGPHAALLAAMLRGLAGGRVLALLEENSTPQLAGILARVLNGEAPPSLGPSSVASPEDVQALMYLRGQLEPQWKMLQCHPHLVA
Description: Inhibition of HDAC10.

The nature of data set [2]: Apparent permeability from apical to basolateral side of Caco-2 cells. It counts as ADME, cell-based. As to conditions: human.
Data set [3] in a line: Volume of distribution at steady state in mouse at 10 mg/kg, iv. Type of data set: ADME, organism-based. The arrangement: dose 10 mg/kg, route intravenous. As to conditions: in vivo, read-out: Vdss.
The subject of the next data set is PC-3. Briefly: Antitumor activity against human PC3 cells xenografted in nude mouse assessed as inhibition of tumor growth at 200 mg/kg, ip administered for 21 days measured or day 22. Type of data set: functional. The following applies: PC-3, ip, route intraperitoneal, read-out: TGI.
The next data set addresses Histone deacetylase 1 (Homo sapiens, UniProt Q13547).

SMILES strings stand for the structures.

Chain of Histone deacetylase 1 (Q13547 whole entry): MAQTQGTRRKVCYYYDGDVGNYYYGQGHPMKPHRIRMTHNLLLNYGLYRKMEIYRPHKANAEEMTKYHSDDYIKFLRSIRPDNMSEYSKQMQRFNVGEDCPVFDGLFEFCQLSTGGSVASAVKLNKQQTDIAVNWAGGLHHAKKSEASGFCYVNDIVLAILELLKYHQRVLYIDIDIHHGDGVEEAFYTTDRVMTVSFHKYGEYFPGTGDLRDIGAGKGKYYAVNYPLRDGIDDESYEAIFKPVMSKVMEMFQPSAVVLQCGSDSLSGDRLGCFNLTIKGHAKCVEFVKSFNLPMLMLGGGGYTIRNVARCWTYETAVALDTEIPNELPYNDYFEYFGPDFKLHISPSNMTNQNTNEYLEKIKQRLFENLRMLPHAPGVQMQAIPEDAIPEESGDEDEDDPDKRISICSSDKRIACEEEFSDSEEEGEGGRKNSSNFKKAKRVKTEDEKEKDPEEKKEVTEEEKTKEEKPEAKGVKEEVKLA
Description for Histone deacetylase 1: Inhibition of HDAC1 in human COLO205 cells assessed as induction of histone H3 acetylation

With `O=C(CCCCCNC(=O)NC(=O)c1ccccc1)NO`, the IC50 against Histone deacetylase 8 was 608 nM; on Histone deacetylase 1, 2210 nM. The Ki on Histone deacetylase 8 is 252 nM; on Histone deacetylase 3 it was 23 nM; in data set [1], 40 nM. In data set [2], the Papp A→B was 3.12 ×10⁻⁶ cm/s. Also, the Vd in data set [3] stood at 2.16 L/kg. For the same molecule, in the data set with PC-3, the inhibition in vivo at 200 mg/kg came out at 73%.

These data come from ChEMBL document CHEMBL1155491, “Acylurea connected straight chain hydroxamates as novel histone deacetylase inhibitors: Synthesis, SAR, and in vivo antitumor activity” (Bioorg Med Chem Lett, 2010).
